# Experiment: Binding of human sera to a glycan microarray, measured by fluorescent anti-human antibodies
# Details: human sera (n=10), FIG. 1
# Text: FIG. 1 provides an analysis of binding of human sera (n=10) to a glycan microarray measured by fluorescent anti-human antibodies.
# To identify carbohydrates that are naturally or inherently antigenic to the human immune system, one can screen human serum antibodies against immobilized glycans (see FIG. 1). This may reveal carbohydrates, and/or carbohydrate arrangements which are recognised as “non-self”. […] By incorporating rhamnose, or a similar antigenic mimics into the natural oligomannose structure of gp120, the inherent tolerance to the (mannose) sugars of HIV may be overcome.
row,Molecule,antigenicity (human serum antibody reactivity against immobilized glycans)
1,"C[C@H]1O[C@H](O)[C@@H](O)[C@@H](O)[C@@H]1O [alpha-D-rhamnose, 6-deoxy-alpha-D-mannose]",antigenic sugar
2,OC[C@H]1O[C@H](O)[C@@H](O)[C@@H](O)[C@@H]1O [alpha-D-Mannose],is not
3,[Man(α1-2)Man(α1-6)][Man(α1-2)Man(α1-3)]Man [D2D3],naturally antigenic
4,Man(α1-2)Man(α1-2)Man(α1-3)Man [D1],naturally antigenic

# From patent US20110045021A1, “SUGAR IMMUNOGENS” (United Therapeutics Corporation, priority 2007, published 2011)
